In PMC6028453, “BrlR from Pseudomonas aeruginosa is a receptor for both cyclic di-GMP and pyocyanin” (Nature Communications, 2018):

Experiments:
[1] = test system: brlR transcription; test: qRT-PCR of brlR transcript; assay type: cell-based, P. aeruginosa PAO1; details: elevated c-di-GMP by diguanylate cyclase PA4843 in PAO1
Method: PAO1 WT strains were grown under different conditions. For c-di-GMP effects, overexpression of PA4843 in PAO1 (PAO1/pHERD20T-PA4843) relative to WT cells (PAO1/ pHERD20T) was determined. When P. aeruginosa strains entered mid-log phase, arabinose was added to induce gene expression. To test pyocyanin’s effect, a P. aeruginosa PAO1 WT strain cells with high pyocyanin production was determined relative to a ΔphzA1-G1/phzA2-G2 strain not producing phenazine and a ΔphzMSH strain not producing pyocyanin.
Total RNA was extracted using a MiniBEST Universal RNA Extraction Kit (TaKaRa) and cDNA synthesis was performed using a PrimeScript RT reagent Kit (TaKaRa). Primers for RT-PCR listed in Supplementary Table 1 were designed using the program PrimerExpress (Applied Biosystems). The RT-PCR reactions were performed on a CFX96 Real-Time PCR Detection System (Bio-Rad) using SYBR Premix Ex Taq™ (TaKaRa). Expression of the target genes was normalized to the expression of 16 S RNA. The relative transcript abundance was calculated according to the 2^−ΔΔCt method. Five biological replicates were performed per sample. The data were analyzed with a one-tailed t-test (***P ≤ 0.001).

[2] = test system: brlR promoter activity (C2E mut3); test: β-galactosidase assay, C2E mut3; assay type: cell-based, Pseudomonas aeruginosa
Method: We also performed β-galactosidase activity assays using a PbrlR-brlR-lacZ reporter construct to investigate the transcriptional function of BrlR mutants in vivo. […] To confirm the effect of c-di-GMP in P. aeruginosa, we carried out real-time quantitative PCR analyses. Following a previous report, we introduced the diguanylate cyclase PA4843 into a WT P. aeruginosa strain carrying either pHERD20T-empty or pHERD20T-PA4843. The transcription level of brlR was analyzed using the brlR 5 F and brlR 3 R primers (Supplementary Table 1). The transcriptional level of brlR in pHERD20T-PA4843 strain is 4.5 ± 1.3-fold higher than that in the pHERD20T-empty strain (Fig. 4h).
β-galactosidase activity was assayed with P. aeruginosa PA01 ΔbrlR strain carrying plasmid pME6522-borne transcriptional lacZ fusions. P. aeruginosa carrying the empty vector was used as the […]. The reporter plasmids are derivatives of the pME6522 plasmid in which multiple cloning sites were inserted before the LacZ with the promoter and coding regions of brlR with diverse mutations. These reporter plasmids were transformed into the reporter strain. Overnight cultures were diluted 20-fold with LB medium supplemented with appropriate antibiotics. […]

[3] = molecular target: T1, BrlR mutant Y40A (Pseudomonas aeruginosa, UniProt Q9HUT5, Y40A); test: FP binding assay, BrlR Y40A
T1 construct: His6-SUMO (N, cleaved yes); made in house; host or cells: E. coli BL21 DE3
Method: F-c-di-GMP and F-c-di-AMP both contain a fluorophore at one of the 2′-ribose hydroxyls of c-di-GMP and c-di-AMP, respectively (Fig. 2f). To measure the binding of c-di-GMP and c-di-AMP to BrlR variants, 1 nM F-c-di-GMP or F-c-di-AMP was incubated with increasing amounts of indicated BrlR WT, BrlR mutation, or BrlR-C in reaction buffer (25 mM HEPES, 100 mM NaCl, pH 7.5) at 25 °C for 20 min. 1 nM fluorescein was incubated with BrlR WT in the same reaction buffer at 25 °C. FP measurements were conducted on a Synergy 4 Microplate Reader (BioTek) at 25 °C. All experiments were performed in triplicate. The curves were fitted to deduce binding affinities by GraphPad Prism 5.
BrlR–c-di-GMPs interactions in two separate c-di-GMP binding sites
In the first binding site, c-di-GMP is half accommodated by the antiparallel β-sheet and two residues (M1 and D35). In detail, the backbone amide protons of the first M1 residue form a hydrogen bond (H-bond) with the phosphate oxygen atom of c-di-GMP, and the side chain of R31 forms two H-bonds with the Gua1 base. The residue D35 also forms an H-bond with the Gua1 base. The aromatic ring of Y40 interacts with the Gua1 base through a hydrophobic π-π interaction. In addition, the hydroxyl group of the Y270 side chain from another subunit interacts with the phosphate 2 of c-di-GMP via an H-bond (Fig. 2d). […]

T1 sequence (Q9HUT5 whole entry Y40A): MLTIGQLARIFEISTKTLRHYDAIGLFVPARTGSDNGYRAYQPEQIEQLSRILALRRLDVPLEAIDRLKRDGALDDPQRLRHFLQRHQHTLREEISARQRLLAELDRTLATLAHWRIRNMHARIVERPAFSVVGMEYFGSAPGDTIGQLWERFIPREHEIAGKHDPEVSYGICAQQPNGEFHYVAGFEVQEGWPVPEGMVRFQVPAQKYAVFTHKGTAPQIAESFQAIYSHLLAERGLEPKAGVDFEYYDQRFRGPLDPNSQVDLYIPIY

Compound: Nc1nc2c(ncn2[C@@H]2O[C@@H]3COP(=O)(O)O[C@H]4[C@@H](O)[C@H](n5cnc6c(=O)[nH]c(N)nc65)O[C@@H]4COP(=O)(O)O[C@H]3[C@H]2O)c(=O)[nH]1 [c-di-GMP, cyclic diguanylate monophosphate]
- transcriptional level of brlR, pHERD20T-PA4843 strain vs pHERD20T-empty strain [1]: 4.5 ± 1.3 fold
- response of β-galactosidase activity to increase in c-di-GMP concentration [2]: no response
- Kd [3]: 34.2 ± 2.6 µM
